Test results as given in PubChem BioAssay (NCI).
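Where inhibition never reached the appropriate level, the endpoint shown equals the highest concentration tested. Otherwise, values were interpolated linearly from a five-concentration, 48-hour dose response in 96-well plates. TGI marks complete inhibition of growth.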

Key:
Test in all cases: NCI anticancer screen, dose series, 48 h
[1] = test system: SK-MEL-28 melanoma
[2] = test system: HCT-116 colon
[3] = test system: SR leukemia
[4] = test system: SF-268 CNS
[5] = test system: DU-145 prostate
[6] = test system: RPMI-8226 leukemia
[7] = test system: BT-549 breast
[8] = test system: LOX IMVI melanoma
[9] = test system: 786-0 renal
[10] = test system: SF-295 CNS
[11] = test system: SK-MEL-2 melanoma
[12] = test system: SW-620 colon
[13] = test system: HCT-15 colon
[14] = test system: NCI/ADR-RES ovarian
[15] = test system: UACC-62 melanoma
[16] = test system: HOP-92 NSCLC
[17] = test system: OVCAR-5 ovarian
[18] = test system: HT29 colon
[19] = test system: K-562 leukemia
[20] = test system: TK-10 renal
[21] = test system: HL-60(TB) leukemia
[22] = test system: UACC-257 melanoma
[23] = test system: SN12C renal
[24] = test system: CCRF-CEM leukemia
[25] = test system: MALME-3M melanoma
[26] = test system: IGROV1 ovarian
[27] = test system: OVCAR-4 ovarian
[28] = test system: NCI-H460 lung
[29] = test system: MDA-N
[30] = test system: MCF7 breast
[31] = test system: MDA-MB-435
[32] = test system: NCI-H23 lung
[33] = test system: SK-MEL-5 melanoma
[34] = test system: ACHN renal
[35] = test system: PC-3 prostate
[36] = test system: SNB-19 CNS
[37] = test system: MOLT-4 leukemia
[38] = test system: HCC-2998 colon
[39] = test system: HS 578T breast
[40] = test system: M14 melanoma
[41] = test system: KM12 colon
[42] = test system: RXF 393 renal
[43] = test system: CAKI-1 renal
[44] = test system: MDA-MB-231 breast
[45] = test system: A498 renal
[46] = test system: U251 CNS
[47] = test system: NCI-H522 lung
[48] = test system: EKVX NSCLC
[49] = test system: A549 NSCLC
[50] = test system: SK-OV-3 ovarian
[51] = test system: COLO 205 colon
[52] = test system: T-47D breast
[53] = test system: SF-539 CNS
[54] = test system: OVCAR-8 ovarian
[55] = test system: HOP-62 NSCLC
[56] = test system: UO-31 renal
[57] = test system: OVCAR-3 ovarian
[58] = test system: NCI-H226 lung
[59] = test system: SNB-75 CNS

In the case of `COC(=O)C1=C(O)c2ccc(Cl)cc2S(=O)(=O)N1C`, the TGI [1] is reported as greater than 100 µM, the TGI [2] is reported as greater than 100 µM and the TGI [3] is reported as greater than 100 µM. It also gave a TGI [4] greater than 100 µM, a TGI [5] greater than 100 µM and a TGI [6] greater than 100 µM. For the same compound, the TGI [7] was greater than 100 µM, the TGI [8] was greater than 100 µM and the TGI [9] was greater than 100 µM. The TGI [10] was greater than 100 µM, the TGI [11] was greater than 100 µM and the TGI [12] was greater than 100 µM. The TGI [13] was greater than 100 µM, the TGI [14] was 95 µM and the TGI [15] was greater than 100 µM. It also gave a TGI [16] greater than 100 µM, a TGI [17] greater than 100 µM and a TGI [18] greater than 100 µM. The TGI [19] was greater than 100 µM, the TGI [20] was greater than 100 µM and the TGI [21] was greater than 100 µM. For the same compound, the TGI [22] was greater than 100 µM, the TGI [23] was greater than 100 µM and the TGI [24] was greater than 100 µM. The TGI [25] was greater than 100 µM, the TGI [26] was greater than 100 µM and the TGI [27] was greater than 100 µM. It also gave a TGI [28] greater than 100 µM, a TGI [29] greater than 100 µM and a TGI [30] greater than 100 µM. The TGI [31] was greater than 100 µM, the TGI [32] was greater than 100 µM and the TGI [33] was greater than 100 µM. The TGI [34] was greater than 100 µM, the TGI [35] was greater than 100 µM and the TGI [36] was greater than 100 µM. For the same compound, the TGI [37] was greater than 100 µM, the TGI [38] was greater than 100 µM and the TGI [39] was greater than 100 µM. For the same compound, the TGI [40] was greater than 100 µM, the TGI [41] was greater than 100 µM and the TGI [42] was greater than 100 µM. For the same compound, the TGI [43] was greater than 100 µM, the TGI [44] was greater than 100 µM and the TGI [45] was greater than 100 µM. It also gave a TGI [46] greater than 100 µM, a TGI [47] greater than 100 µM and a TGI [48] greater than 100 µM. The TGI [49] was greater than 100 µM, the TGI [50] was greater than 100 µM and the TGI [51] was greater than 100 µM. For the same compound, the TGI [52] was greater than 100 µM.

`O=C(N(O)c1ccccc1Cl)C(O)(c1ccccc1)c1ccccc1` showed a TGI [1] greater than 100 µM, a TGI [2] greater than 100 µM and a TGI [3] of 49.9 µM. For the same compound, the TGI [4] was greater than 100 µM, the TGI [5] was greater than 100 µM and the TGI [53] was greater than 100 µM. It also gave a TGI [6] of 69 µM, a TGI [7] greater than 100 µM and a TGI [8] greater than 100 µM. For the same compound, the TGI [9] was greater than 100 µM, the TGI [10] was greater than 100 µM and the TGI [11] was greater than 100 µM. It also gave a TGI [12] greater than 100 µM, a TGI [13] greater than 100 µM and a TGI [14] greater than 100 µM. It also gave a TGI [15] greater than 100 µM, a TGI [16] greater than 100 µM and a TGI [17] greater than 100 µM. It also gave a TGI [18] greater than 100 µM, a TGI [19] of 71.5 µM and a TGI [20] greater than 100 µM. For the same compound, the TGI [21] was 64.7 µM, the TGI [22] was greater than 100 µM and the TGI [23] was greater than 100 µM. The TGI [24] was 41 µM, the TGI [25] was greater than 100 µM and the TGI [26] was greater than 100 µM. It also gave a TGI [27] greater than 100 µM, a TGI [28] greater than 100 µM and a TGI [54] greater than 100 µM. It also gave a TGI [29] greater than 100 µM, a TGI [30] greater than 100 µM and a TGI [31] greater than 100 µM. The TGI [32] was greater than 100 µM, the TGI [33] was greater than 100 µM and the TGI [34] was greater than 100 µM. The TGI [35] was greater than 100 µM, the TGI [36] was greater than 100 µM and the TGI [55] was greater than 100 µM. It also gave a TGI [37] greater than 100 µM, a TGI [38] greater than 100 µM and a TGI [39] greater than 100 µM. For the same compound, the TGI [40] was greater than 100 µM, the TGI [41] was greater than 100 µM and the TGI [42] was greater than 100 µM. For the same compound, the TGI [43] was greater than 100 µM, the TGI [44] was greater than 100 µM and the TGI [56] was 57.9 µM. It also gave a TGI [45] greater than 100 µM, a TGI [46] greater than 100 µM and a TGI [47] greater than 100 µM. For the same compound, the TGI [48] was greater than 100 µM, the TGI [57] was greater than 100 µM and the TGI [49] was greater than 100 µM. It also gave a TGI [50] greater than 100 µM, a TGI [51] greater than 100 µM and a TGI [58] greater than 100 µM. The TGI [52] was greater than 100 µM.

In the case of `CCOC(=O)c1nc2cc(F)c(N3CCOCC3)cc2[nH]c1=O`, the TGI [1] is reported as greater than 100 µM, the TGI [2] is reported as greater than 100 µM and the TGI [3] is reported as greater than 100 µM. The TGI [4] was greater than 100 µM, the TGI [5] was greater than 100 µM and the TGI [53] was greater than 100 µM. It also gave a TGI [6] greater than 100 µM, a TGI [7] greater than 100 µM and a TGI [9] greater than 100 µM. The TGI [10] was greater than 100 µM, the TGI [11] was greater than 100 µM and the TGI [12] was greater than 100 µM. For the same compound, the TGI [13] was greater than 100 µM, the TGI [14] was greater than 100 µM and the TGI [15] was greater than 100 µM. The TGI [16] was greater than 100 µM, the TGI [17] was greater than 100 µM and the TGI [18] was greater than 100 µM. It also gave a TGI [19] greater than 100 µM, a TGI [20] greater than 100 µM and a TGI [21] greater than 100 µM. For the same compound, the TGI [22] was greater than 100 µM, the TGI [23] was greater than 100 µM and the TGI [24] was greater than 100 µM. For the same compound, the TGI [25] was greater than 100 µM, the TGI [26] was greater than 100 µM and the TGI [27] was greater than 100 µM. It also gave a TGI [28] greater than 100 µM, a TGI [54] greater than 100 µM and a TGI [29] greater than 100 µM. For the same compound, the TGI [30] was greater than 100 µM, the TGI [31] was greater than 100 µM and the TGI [32] was greater than 100 µM. The TGI [33] was greater than 100 µM, the TGI [34] was greater than 100 µM and the TGI [35] was greater than 100 µM. It also gave a TGI [36] greater than 100 µM, a TGI [55] greater than 100 µM and a TGI [37] greater than 100 µM. For the same compound, the TGI [38] was greater than 100 µM, the TGI [39] was greater than 100 µM and the TGI [40] was greater than 100 µM. It also gave a TGI [41] greater than 100 µM, a TGI [42] greater than 100 µM and a TGI [43] greater than 100 µM. It also gave a TGI [44] greater than 100 µM, a TGI [56] greater than 100 µM and a TGI [45] greater than 100 µM. It also gave a TGI [46] greater than 100 µM, a TGI [47] greater than 100 µM and a TGI [48] greater than 100 µM. It also gave a TGI [57] greater than 100 µM, a TGI [49] greater than 100 µM and a TGI [50] greater than 100 µM. The TGI [51] was greater than 100 µM, the TGI [58] was greater than 100 µM and the TGI [59] was greater than 100 µM. For the same compound, the TGI [52] was greater than 100 µM.

`COc1ccc(N=NC(=O)NC(CC(C)C)C(=O)NC(C)C(=O)O)cc1` (stereo not given) gave a TGI [1] greater than 100 µM, a TGI [2] greater than 100 µM and a TGI [3] greater than 100 µM. For the same compound, the TGI [4] was greater than 100 µM, the TGI [5] was greater than 100 µM and the TGI [53] was 14.4 µM. It also gave a TGI [6] greater than 100 µM, a TGI [7] greater than 100 µM and a TGI [9] greater than 100 µM. It also gave a TGI [10] greater than 100 µM, a TGI [11] greater than 100 µM and a TGI [12] greater than 100 µM. It also gave a TGI [13] greater than 100 µM, a TGI [14] greater than 100 µM and a TGI [15] greater than 100 µM. It also gave a TGI [16] greater than 100 µM, a TGI [17] greater than 100 µM and a TGI [18] greater than 100 µM. For the same compound, the TGI [19] was greater than 38.4 µM, the TGI [20] was greater than 100 µM and the TGI [21] was greater than 100 µM. For the same compound, the TGI [22] was greater than 100 µM, the TGI [23] was greater than 100 µM and the TGI [24] was greater than 100 µM. The TGI [25] was greater than 100 µM, the TGI [26] was greater than 100 µM and the TGI [27] was greater than 100 µM. The TGI [28] was greater than 89 µM, the TGI [54] was greater than 100 µM and the TGI [29] was greater than 100 µM. For the same compound, the TGI [30] was greater than 100 µM, the TGI [31] was greater than 100 µM and the TGI [32] was greater than 100 µM. The TGI [33] was greater than 100 µM, the TGI [34] was greater than 100 µM and the TGI [35] was greater than 100 µM. For the same compound, the TGI [36] was greater than 100 µM, the TGI [55] was greater than 100 µM and the TGI [37] was greater than 100 µM. It also gave a TGI [38] greater than 100 µM, a TGI [39] greater than 100 µM and a TGI [40] greater than 100 µM. It also gave a TGI [41] greater than 100 µM, a TGI [42] greater than 100 µM and a TGI [43] greater than 100 µM. The TGI [44] was greater than 100 µM, the TGI [56] was greater than 26.6 µM and the TGI [45] was greater than 100 µM. For the same compound, the TGI [46] was greater than 100 µM, the TGI [47] was greater than 100 µM and the TGI [48] was greater than 100 µM. It also gave a TGI [57] greater than 100 µM, a TGI [49] greater than 51.2 µM and a TGI [51] of 16.3 µM. For the same compound, the TGI [58] was greater than 100 µM, the TGI [59] was greater than 100 µM and the TGI [52] was greater than 45.3 µM.
